Source: US11285127B2, “Compositions and methods for lowering triglycerides without raising LDL-C levels in a subject on concomitant statin therapy” (Amarin Pharmaceuticals Ireland Limited, priority 2013, dated 2022)

Test system: patients with fasting triglyceride levels >200 mg/dl and <500 mg/dl despite statin therapy
Test: 12-week study: lipoprotein particle concentration (VLDL, LDL, HDL; nuclear magnetic resonance)
Assay type: in vivo, human
From the text: Parameters (a)-(z) can be measured in accordance with any clinically acceptable methodology. For example, triglycerides, total cholesterol, HDL-C and fasting blood sugar can be sample from serum and analyzed using standard photometry techniques. VLDL-TG, LDL-C and VLDL-C can be calculated or determined using serum lipoprotein fractionation by preparative ultracentrifugation and subsequent quantitative analysis by refractometry or by analytic ultracentrifugal methodology. Apo A1, Apo B and hsCRP can be determined from serum using standard nephelometry techniques. Lipoprotein (a) can be determined from serum using standard turbidimetric immunoassay techniques. LDL particle number and particle size can be determined using nuclear magnetic resonance (NMR) spectrometry. Remnants lipoproteins and LDL-phospholipase A2 can be determined from EDTA plasma or serum and serum, respectively, using enzymatic immunoseparation techniques. Oxidized LDL, intercellular adhesion molecule-1 and interleukin-2 levels can be determined from serum using standard enzyme immunoassay techniques. These techniques are described in detail in standard textbooks, for example Tietz Fundamentals of Clinical Chemistry, 6th Ed. (Burtis, Ashwood and Borter Eds.), WB Saunders Company.
A multi-center, placebo-controlled, randomized, double-blind, 12-week study was performed to evaluate the efficacy and safety of >96% E-EPA in patients with fasting triglyceride levels >200 mg/dl and <500 mg/dl despite statin therapy (the mean of two qualifying entry values needed to be >185 mg/dl and at least one of the values needed to be >200 mg/dl). The primary objective of the study was to determine the efficacy of >96% E-EPA 2 g daily and 4 g daily, compared to placebo, in lowering fasting TG levels in patients with high risk for cardiovascular disease and with fasting TG levels 200 mg/dl and <500 mg/dl, despite treatment to LDL-C goal on statin therapy.
The secondary objectives of this study were the following: • 1. To determine the safety and tolerability of >96% E-EPA 2 g daily and 4 g daily; • 2. To determine the effect of >96% E-EPA on lipid and apolipoprotein profiles including total cholesterol (TC), non-high-density lipoprotein cholesterol (non-HDL-C), low density lipoprotein cholesterol (LDL-C), high density lipoprotein cholesterol (HDL-C), and […]; • 3. To determine the effect of >96% E-EPA on lipoprotein associated phospholipase A2 (Lp-PLA2) from baseline to week 12; • 4. To determine the effect of >96% E-EPA on low-density lipoprotein (LDL) particle number and size; • 5. To determine the effect of >96% E-EPA on oxidized LDL; • 6. To determine the effect of >96% E-EPA on fasting plasma glucose (FPG) and hemoglobin A1c (HbA1c); • 7. To determine the effect of >96% E-EPA on insulin resistance; • 8. To determine the effect of >96% E-EPA on high-sensitivity C-reactive protein (hsCRP); • 9. To determine the effects of >96% E-EPA 2 g daily and 4 g daily on the incorporation of fatty acids into red blood cell membranes and into plasma phospholipids; • 10. To explore the relationship between baseline fasting TG levels and the reduction in fasting TG levels; and • 11. To explore the relationship between changes of fatty acid concentrations in plasma and red blood cell membranes, and the reduction in fasting TG levels.
The primary efficacy variable for the double-blind treatment period was percent change in TG from baseline to Week 12 endpoint. […]

[1] = IPE 4 g/day (n = 216), 12 weeks
[2] = IPE 4 g/day (n = 216); 12 weeks
[3] = IPE 4 g/day (n = 216); 12 weeks; IDL (23-29 nm)
[4] = IPE 4 g/day (n = 216); 12 weeks; large HDL (9.4-14.0 nm)
[5] = IPE 4 g/day (n = 216); 12 weeks; large LDL (20.5-23.0 nm)
[6] = IPE 4 g/day (n = 216); 12 weeks; large VLDL (>60 nm)
[7] = IPE 4 g/day (n = 216); 12 weeks; medium HDL (8.2-9.4 nm)
[8] = IPE 4 g/day (n = 216); 12 weeks; medium VLDL (42-60 nm)
[9] = IPE 4 g/day (n = 216); 12 weeks; small HDL (7.3-8.2 nm)
[10] = IPE 4 g/day (n = 216); 12 weeks; small LDL (18.0-20.5 nm)
[11] = IPE 4 g/day (n = 216); 12 weeks; small VLDL (29-42 nm)
[12] = IPE 4 g/day vs placebo; 12 weeks; Hodges-Lehmann median

Structure (SMILES): CC/C=C\C/C=C\C/C=C\C/C=C\C/C=C\CCCC(=O)OCC [AMR101, ethyl eicosapentaenoate]
- Total VLDL particle concentration, End of Treatment (median) (IPE 2 g/day (n = 222), 12 weeks): 122.4 nmol/L
- IDL particle concentration, Change from Baseline % (median) [1]: 23.7%
- IDL particle concentration, End of Treatment (median) [1]: 63.0 nmol/L
- Large HDL particle concentration, Change from Baseline % (median) [1]: −21.6%
- Large HDL particle concentration, End of Treatment (median) [1]: 1.9 µmol/L
- Large LDL particle concentration, Change from Baseline % (median) [1]: 55.2%
- Large LDL particle concentration, End of Treatment (median) [1]: 172.5 nmol/L
- Large VLDL particle concentration, Change from Baseline % (median) [1]: −41.9%
- Large VLDL particle concentration, End of Treatment (median) [1]: 7.7 nM
- Medium HDL particle concentration, Change from Baseline % (median) [1]: 4.2%
- Medium HDL particle concentration, End of Treatment (median) [1]: 6.9 µmol/L
- Medium VLDL particle concentration, Change from Baseline % (median) [1]: −6.9%
- Medium VLDL particle concentration, End of Treatment (median) [1]: 49.7 nmol/L
- Small HDL particle concentration, Change from Baseline % (median) [1]: −3.9%
- Small HDL particle concentration, End of Treatment (median) [1]: 23.1 µmol/L
- Small LDL particle concentration, Change from Baseline % (median) [1]: −1.1%
- Small LDL particle concentration, End of Treatment (median) [1]: 902.5 nmol/L
- Small VLDL particle concentration, Change from Baseline % (median) [1]: 8.3%
- Small VLDL particle concentration, End of Treatment (median) [1]: 46.8 nmol/L
- Total HDL particle concentration, Change from Baseline % (median) [1]: −4.0%
- Total HDL particle concentration, End of Treatment (median) [1]: 32.6 µmol/L
- Total LDL particle concentration, Change from Baseline % (median) [1]: 3.8%
- Total LDL particle concentration, End of Treatment (median) [1]: 1191 nmol/L
- Total VLDL particle concentration, Change from Baseline % (median) [1]: −2.5%
- Total VLDL particle concentration, End of Treatment (median) [1]: 110.0 nmol/L
- Total HDL particle concentration, Change from Baseline % (median) [2]: −4.0%
- Total HDL particle concentration, End of Treatment (median) [2]: 32.6 μmon/L
- Total LDL particle concentration, Change from Baseline % (median) [2]: 3.8%
- Total LDL particle concentration, End of Treatment (median) [2]: 1191 nmol/L
- Total VLDL particle concentration, Change from Baseline % (median) [2]: −2.5%
- Total VLDL particle concentration, End of Treatment (median) [2]: 110.0 nmol/L
- IDL particle concentration, Change from Baseline % (median) [3]: 23.7%
- IDL particle concentration, End of Treatment (median) [3]: 63.0 nmol/L
- Large HDL particle concentration, Change from Baseline % (median) [4]: −21.6%
- Large HDL particle concentration, End of Treatment (median) [4]: 1.9 μmon
- Large LDL particle concentration, Change from Baseline % (median) [5]: 55.2%
- Large LDL particle concentration, End of Treatment (median) [5]: 172.5 nmol/L
- Large VLDL particle concentration, Change from Baseline % (median) [6]: −41.9%
- Large VLDL particle concentration, End of Treatment (median) [6]: 7.7 nM
- Medium HDL particle concentration, Change from Baseline % (median) [7]: 4.2%
- Medium HDL particle concentration, End of Treatment (median) [7]: 6.9 μmon/L
- Medium VLDL particle concentration, Change from Baseline % (median) [8]: −6.9%
- Medium VLDL particle concentration, End of Treatment (median) [8]: 49.7 nmol/L
- Small HDL particle concentration, Change from Baseline % (median) [9]: −3.9%
- Small HDL particle concentration, End of Treatment (median) [9]: 23.1 μmon/L
- Small LDL particle concentration, Change from Baseline % (median) [10]: −1.1%
- Small LDL particle concentration, End of Treatment (median) [10]: 902.5 nmol/L
- Small VLDL particle concentration, Change from Baseline % (median) [11]: 8.3%
- Small VLDL particle concentration, End of Treatment (median) [11]: 46.8 nmol/L
- Total HDL particle concentration, Median Change From Baseline IPE 4 g/day vs Placebo, % [12]: −7.4%
- Total LDL particle concentration, Median Change From Baseline IPE 4 g/day vs Placebo, % [12]: −7.7%
- Total VLDL particle concentration, Median Change From Baseline IPE 4 g/day vs Placebo, % [12]: −12.2%
- IDL particle concentration, Median Change From Baseline IPE 4 g/day vs Placebo, % (IPE 4 g/day vs placebo; 12 weeks; Hodges-Lehmann median; IDL (23-29 nm)): 10.0%
- Large HDL particle concentration, Median Change From Baseline IPE 4 g/day vs Placebo, % (IPE 4 g/day vs placebo; 12 weeks; Hodges-Lehmann median; large HDL (9.4-14.0 nm)): −31.0%
- Large LDL particle concentration, Median Change From Baseline IPE 4 g/day vs Placebo, % (IPE 4 g/day vs placebo; 12 weeks; Hodges-Lehmann median; large LDL (20.5-23.0 nm)): 34.2%
- Large VLDL particle concentration, Median Change From Baseline IPE 4 g/day vs Placebo, % (IPE 4 g/day vs placebo; 12 weeks; Hodges-Lehmann median; large VLDL (>60 nm)): −46.4%
- Medium HDL particle concentration, Median Change From Baseline IPE 4 g/day vs Placebo, % (IPE 4 g/day vs placebo; 12 weeks; Hodges-Lehmann median; medium HDL (8.2-9.4 nm)): −6.5%
- Medium VLDL particle concentration, Median Change From Baseline IPE 4 g/day vs Placebo, % (IPE 4 g/day vs placebo; 12 weeks; Hodges-Lehmann median; medium VLDL (42-60 nm)): −12.1%
- Small HDL particle concentration, Median Change From Baseline IPE 4 g/day vs Placebo, % (IPE 4 g/day vs placebo; 12 weeks; Hodges-Lehmann median; small HDL (7.3-8.2 nm)): −2.8%
- Small LDL particle concentration, Median Change From Baseline IPE 4 g/day vs Placebo, % (IPE 4 g/day vs placebo; 12 weeks; Hodges-Lehmann median; small LDL (18.0-20.5 nm)): −13.5%
- Small VLDL particle concentration, Median Change From Baseline IPE 4 g/day vs Placebo, % (IPE 4 g/day vs placebo; 12 weeks; Hodges-Lehmann median; small VLDL (29-42 nm)): 2.8%
